Like-named read-outs stand apart in the source and are kept apart here. Positions of bridges follow the written chain, without caps; N, C: chain ends. Non-standard residues stand in square brackets, D forms with d. Residues, ends and D or L forms follow the SMILES beside them. dDip = N[C@@H](C(=O)O)C(c1ccccc1)c1ccccc1; dPhe(4-Br) = N[C@H](Cc1ccc(Br)cc1)C(=O)O; dPhe(4-I) = N[C@H](Cc1ccc(I)cc1)C(=O)O; d(αMeF) = C[C@@](N)(Cc1ccccc1)C(=O)O; NMeR = CN[C@@H](CCCNC(=N)N)C(=O)O; dTic = O=C(O)[C@H]1Cc2ccccc2CN1; Nle = CCCC[C@H](N)C(=O)O
What was measured:
[1] = molecular target: T1, human MC4R (Homo sapiens, UniProt P32245); assay: split-luciferase cAMP sensor assay, agonist mode (measurement window 1), hMC4R; assay type: cell-based; settings: for Emax / EC50: agonist mode, hMC4R stable cell line; for Emax: read-out: MC4R cAMP % max activation; for EC50: read-out: MC4R cAMP EC50
T1 construct: host or cells: HEK-293 cells stably expressing the GScAMP22F split-luciferase cAMP sensor and hMC4R, G418 selection
Outline: (§1)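 EC50 values come from a four-parameter variable-slope fit of luminescence in measurement window 1, capturing direct peptide effects on receptor-expressing cells with a cAMP22f luciferase sensor. Cells were preloaded with 4% D-luciferin, serum-free medium; 20 μM forskolin normalized for cell number and transducer efficiency.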

[2] = molecular target: T2, human MC3R (Homo sapiens, UniProt P41968); assay: split-luciferase cAMP sensor assay, agonist mode (measurement window 1), hMC3R; assay type: cell-based; settings: agonist mode, hMC3R stable cell line; for Emax: read-out: MC3R cAMP % max activation; for EC50: read-out: MC3R cAMP EC50
T2 construct: expressed in transfected cells; host or cells: HEK-293 cells stably expressing the GScAMP22F split-luciferase cAMP sensor (parent reporter line from Promega); MC3R clone generated in-house, G418 selection
Outline: as §1

T1 sequence (P32245 whole entry): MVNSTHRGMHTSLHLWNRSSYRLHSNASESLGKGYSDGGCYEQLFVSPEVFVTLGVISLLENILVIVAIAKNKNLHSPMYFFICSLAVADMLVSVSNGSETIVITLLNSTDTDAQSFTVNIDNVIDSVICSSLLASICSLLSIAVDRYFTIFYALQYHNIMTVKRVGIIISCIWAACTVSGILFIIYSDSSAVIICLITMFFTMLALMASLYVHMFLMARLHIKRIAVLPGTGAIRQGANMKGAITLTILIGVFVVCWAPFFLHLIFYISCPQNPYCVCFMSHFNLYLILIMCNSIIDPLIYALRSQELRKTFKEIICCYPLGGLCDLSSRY
T2 sequence (P41968 whole entry): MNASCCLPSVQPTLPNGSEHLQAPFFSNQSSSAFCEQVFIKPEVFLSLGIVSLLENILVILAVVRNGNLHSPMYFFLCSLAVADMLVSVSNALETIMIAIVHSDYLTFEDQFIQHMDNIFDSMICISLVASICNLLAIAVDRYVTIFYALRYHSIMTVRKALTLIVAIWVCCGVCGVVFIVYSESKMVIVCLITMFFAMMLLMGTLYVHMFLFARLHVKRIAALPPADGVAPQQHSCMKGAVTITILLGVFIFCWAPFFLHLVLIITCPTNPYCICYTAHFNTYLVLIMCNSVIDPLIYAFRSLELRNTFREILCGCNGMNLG

SMILES	Emax [1] [%]	MC4R selectivity vs MC1R ([1]; cell printed in nM (see doubts)) [nM]	Emax [2] [%]	EC50 [2] [nM]	MC4R selectivity vs MC1R [1]	MC4R selectivity vs MC3R [1]	EC50 [1] [nM]	MC3R cAMP % max activation [2]
CCCC[C@H](NC(=O)[C@H](CCCNC(=N)N)NC(C)=O)C(=O)N[C@H]1CSSC[C@@H](C(N)=O)NC(=O)[C@H](Cc2c[nH]c3ccccc23)NC(=O)[C@H](CCCNC(=N)N)NC(=O)[C@@H](Cc2ccc(Br)cc2)NC(=O)[C@H](Cc2c[nH]cn2)NC1=O [CTX-1229, Arg-Nle-cyclo(Cys-His-D-Phe(4-Br)-Arg-Trp-Cys)] (Ac-R[Nle]CH[dPhe(4-Br)]RWC-NH2; disulfide 3-8 (inferred))	31	18	16	3.5				
CCCC[C@H](NC(=O)[C@H](CCCNC(=N)N)NC(C)=O)C(=O)N[C@H]1CSSC[C@@H](C(N)=O)NC(=O)[C@@H](Cc2c[nH]c3ccccc23)NC(=O)[C@H](CCCNC(=N)N)NC(=O)[C@@H](Cc2ccc(Br)cc2)NC(=O)[C@H](CCCNC(=N)N)NC1=O [CTX-1613, Arg-Nle-cyclo(Cys-Arg-D-Phe(4-Br)-Arg-D-Trp-Cys)] (Ac-R[Nle]CR[dPhe(4-Br)]R[dW]C-NH2; disulfide 3-8 (inferred))	32		35	4	0.79	2.1	1.9	
CCCC[C@H](NC(=O)[C@H](CCCNC(=N)N)NC(C)=O)C(=O)N[C@H]1CSSC[C@@H](C(N)=O)NC(=O)[C@@H](Cc2c[nH]c3ccccc23)NC(=O)[C@H](CCCNC(=N)N)NC(=O)[C@@H](Cc2ccc(OC)cc2)NC(=O)[C@H](CCCNC(=N)N)NC1=O [CTX-1615, Arg-Nle-cyclo(Cys-Arg-D-Tyr(4-OMe)-Arg-D-Trp-Cys)] (Ac-R[Nle]CR[dY](Me)R[dW]C-NH2; disulfide 3-8)	68		55	27	0.26	2.14	13	
CCCC[C@H](NC(=O)[C@H](CCCNC(=N)N)NC(C)=O)C(=O)N[C@H]1CSSC[C@@H](C(N)=O)NC(=O)[C@H](Cc2c[nH]c3ccccc23)NC(=O)[C@H](CCCNC(=N)N)NC(=O)[C@@H](Cc2ccc(OC)cc2)NC(=O)[C@H](CCCNC(=N)N)NC1=O [CTX-1614, Arg-Nle-cyclo(Cys-Arg-D-Tyr(4-OMe)-Arg-Trp-Cys)] (Ac-R[Nle]CR[dY](Me)RWC-NH2; disulfide 3-8 (inferred))	41		28		0.08	1.89	1.7	
CC(=O)N[C@@H](CCCNC(=N)N)C(=O)N[C@H]1CSSC[C@@H](C(N)=O)NC(=O)[C@@H](Cc2c[nH]c3ccccc23)NC(=O)[C@H](CCCNC(=N)N)NC(=O)[C@@](C)(Cc2ccccc2)NC(=O)[C@H](CCCNC(=N)N)NC(=O)[C@@H](C)NC1=O [CTX-1279, Arg-cyclo(Cys-D-Ala-Arg-a-Me-D-Phe-Arg-D-Trp-Cys)] (Ac-RC[dA]R[d(αMeF)]R[dW]C-NH2; disulfide 2-8)	79		20		0.83	0.61	72	
CC(=O)N[C@@H](CCCNC(=N)N)C(=O)N[C@H]1CSSC[C@@H](C(N)=O)NC(=O)[C@@H](Cc2c[nH]c3ccccc23)NC(=O)[C@H](CCCNC(=N)N)NC(=O)[C@@H](C(c2ccccc2)c2ccccc2)NC(=O)[C@H](CCCNC(=N)N)NC(=O)[C@@H](C)NC1=O [CTX-1280, Arg-cyclo(Cys-D-Ala-Arg-D-Dip-Arg-D-Trp-Cys)] (Ac-RC[dA]R[dDip]R[dW]C-NH2; disulfide 2-8 (inferred))	4		2.6		0.1	1.24		
CC(=O)N[C@@H](CCCNC(=N)N)C(=O)N[C@H]1CSSC[C@@H](C(N)=O)NC(=O)[C@H](Cc2c[nH]c3ccccc23)NC(=O)[C@H](CCCNC(=N)N)NC(=O)[C@@H](Cc2c[nH]c3ccccc23)NC(=O)[C@H](CCCNC(=N)N)NC(=O)[C@@H](C)NC1=O [CTX-1274, Arg-cyclo(Cys-D-Ala-Arg-D-Trp-Arg-Trp-Cys)] (Ac-RC[dA]R[dW]RWC-NH2; disulfide 2-8)	77		5.4		0.19	0.12	1400	
CC(=O)N[C@@H](CCCNC(=N)N)C(=O)N[C@H]1CSSC[C@@H](C(=O)N[C@@H](CCCCN)C(=O)N2CCC[C@H]2C(=O)N[C@H](C(N)=O)C(C)C)NC(=O)[C@@H](Cc2c[nH]c3ccccc23)NC(=O)[C@H](CCCNC(=N)N)NC(=O)[C@@H](Cc2ccc(Br)cc2)NC(=O)[C@H](CCCNC(=N)N)NC(=O)[C@@H](C)NC1=O [CTX-1216, Arg-cyclo(Cys-D-Ala-Arg-D-Phe(4-Br)-Arg-D-Trp-Cys)-Lys-Pro-Val] (Ac-RC[dA]R[dPhe(4-Br)]R[dW]CKPV-NH2; disulfide 2-8 (inferred))	69		11	3.5	0.82	1.99	1.8	
CCCC[C@H](NC(C)=O)C(=O)N[C@H]1CSSC[C@@H](C(N)=O)NC(=O)[C@@H](Cc2c[nH]c3ccccc23)NC(=O)[C@H](CCCNC(=N)N)NC(=O)[C@@H](Cc2ccc(I)cc2)NC(=O)[C@H](Cc2c[nH]cn2)NC1=O [CTX-1234, Nle-cyclo(Cys-His-D-Phe(4-I)-Arg-D-Trp-Cys)] (Ac-[Nle]CH[dPhe(4-I)]R[dW]C-NH2; disulfide 2-7 (inferred))	16		18		0.2	1.32	2.6	
CC(=O)N[C@@H](CCCNC(=N)N)C(=O)N[C@H]1CSSC[C@@H](C(N)=O)NC(=O)[C@@H](C)NC(=O)[C@H](CCCNC(=N)N)NC(=O)[C@@H](Cc2ccc(Br)cc2)NC(=O)[C@H](CCCNC(=N)N)NC(=O)[C@@H](C)NC1=O [CTX-1260, Arg-cyclo(Cys-D-Ala-Arg-D-Phe(4-Br)-Arg-D-Ala-Cys)] (Ac-RC[dA]R[dPhe(4-Br)]R[dA]C-NH2; disulfide 2-8)	38		13		0.01	0.05		
CC(=O)N[C@@H](CCCNC(=N)N)C(=O)N[C@H]1CSSC[C@@H](C(N)=O)NC(=O)[C@H](Cc2c[nH]c3ccccc23)NC(=O)[C@@H](CCCNC(=N)N)NC(=O)[C@@H](Cc2ccccc2)NC(=O)[C@H](CCCNC(=N)N)NC(=O)[C@@H](C)NC1=O [CTX-1282, Arg-cyclo(Cys-D-Ala-Arg-D-Phe-D-Arg-Trp-Cys)] (Ac-RC[dA]R[dF][dR]WC-NH2; disulfide 2-8 (inferred))	72		4.2		0.14	0.38		
CC(=O)N[C@@H](CCCNC(=N)N)C(=O)N[C@H]1CSSC[C@@H](C(N)=O)NC(=O)[C@@H](Cc2c[nH]c3ccccc23)NC(=O)[C@H](CCCNC(=N)N)NC(=O)[C@@H](Cc2ccc(Br)cc2)NC(=O)[C@@H]2CCCN2C(=O)[C@@H](C)NC1=O [CTX-1249, Arg-cyclo(Cys-D-Ala-Pro-D-Phe(4-Br)-Arg-D-Trp-Cys)] (Ac-RC[dA]P[dPhe(4-Br)]R[dW]C-NH2; disulfide 2-8)	22		1.9		5.08	0.45	14	
CC(=O)N[C@@H](CCCNC(=N)N)C(=O)N[C@H]1CSSC[C@@H](C(N)=O)NC(=O)[C@@H](Cc2c[nH]c3ccccc23)NC(=O)[C@H](CCCNC(=N)N)NC(=O)[C@H]2Cc3ccccc3CN2C(=O)[C@H](CCCNC(=N)N)NC(=O)[C@@H](C)NC1=O [CTX-1273, Arg-cyclo(Cys-D-Ala-Arg-D-Tic-Arg-D-Trp-Cys)] (Ac-RC[dA]R[dTic]R[dW]C-NH2; disulfide 2-8)	32		3.7		0.05	0.64		
CC(=O)N[C@@H](CCCNC(=N)N)C(=O)N[C@H]1CSSC[C@@H](C(N)=O)NC(=O)[C@@H](Cc2c[nH]c3ccccc23)NC(=O)[C@H](CCCNC(=N)N)NC(=O)[C@@H](Cc2ccc(O)cc2)NC(=O)[C@H](CCCNC(=N)N)NC(=O)[C@@H](C)NC1=O [CTX-1237, Arg-cyclo(Cys-D-Ala-Arg-D-Tyr-Arg-D-Trp-Cys)] (Ac-RC[dA]R[dY]R[dW]C-NH2; disulfide 2-8 (inferred))	61		19		0.24	0.08		
CC(=O)N[C@@H](CCCNC(=N)N)C(=O)N[C@H]1CSSC[C@@H](C(N)=O)NC(=O)[C@@H](Cc2c[nH]c3ccccc23)NC(=O)[C@H](CCCNC(=N)N)NC(=O)[C@@H](Cc2c[nH]c3ccccc23)NC(=O)[C@H](CCCNC(=N)N)NC(=O)[C@@H](C)NC1=O [CTX-1275, Arg-cyclo(Cys-D-Ala-Arg-D-Trp-Arg-D-Trp-Cys)] (Ac-RC[dA]R[dW]R[dW]C-NH2; disulfide 2-8 (inferred))	24			248	0.22	0.27	906	(3.3%)
CC(=O)N[C@@H](CCCNC(=N)N)C(=O)N[C@H]1CSSC[C@@H](C(N)=O)NC(=O)[C@@H](Cc2c[nH]c3ccccc23)NC(=O)[C@H](CCCNC(=N)N)N(C)C(=O)[C@@H](Cc2ccc(Br)cc2)NC(=O)[C@H](CCCNC(=N)N)NC(=O)[C@@H](C)NC1=O [CTX-1251, Arg-cyclo(Cys-D-Ala-Arg-D-Phe(4-Br)-NMe-Arg-D-Trp-Cys)] (Ac-RC[dA]R[dPhe(4-Br)][NMeR][dW]C-NH2; disulfide 2-8)	31		30		0.11	3.73		

From US20240391954A1, “MC4R AGONIST PEPTIDES” (The Regents of the University of Michigan, priority 2021, published 2024)
